According to article PMC3269530 (Journal of Molecular Biology, 2011):

Experiments:
[1] = system: R277E mutant of ArfA-c(D236A); format: binding, M. tuberculosis
ArfA-c(D236A) = format: binding, M. tuberculosis; details: pH 7

Question: How did the “changes in the NMR spectrum of the R277E mutant” value [1] turn out when “uridine-5'-diphosphate–MurNAc–L-Ala–D-γ-Glu–m-DAP–D-Ala– D-Ala [UMDP]” was run?
Answer: no changes were observed

Question: What about the “peak changes in 1H/15N NMR spectrum on addition of peptide” value (ArfA-c(D236A)) of the same substance?
Answer: several peak frequency and intensity changes
